The source of these data is patent EP0346068A2, “D-Cys6 vasopressin antagonists” (SMITHKLINE BECKMAN CORPORATION, priority 1988, dated 1989).

Positions of bridges follow the written chain, without caps; N, C: chain ends. No end group written: not given here.

The subject of this assay is Adult female mongrel dogs. Briefly: Partial agonist screen in indomethacin-treated dogs under water diuresis (urine volume and osmolality). It counts as in vivo. The protocol: The compounds are tested for partial agonist activity by the following procedures:
Adult female mongrel dogs are fasted for 18 hours prior to testing. The studies are conducted under steady state water diuresis initiated by a 5% body weight water load and a 3% dextrose infusion. At 0 hour, indomethacin, a cyclooxygenase inhibitor, is administered (2 mg/kg i.v. bolus and 3 mg/kg/hr i.v. infusion). Twenty minutes later, the test compound is administered i.v. Urine volume and osmolality are measured every 10 minutes for 4 hours.
The indomethacin dog model may predict the agonist activity of a compound in man.

Take “ADH: the natural anti-diuretic hormone (ADH), vasopressin (CYFQNCPRG-NH2; disulfide 1-6; ends not checked; UniProt P01185 20-28, looked up)”: the “antidiuretic activity (urine osmolality, volume) after treatment with indomethacin” value is recorded as “potentiates the antidiuretic activity”.
